{
  "source": "patent US20100087385A1",
  "about": "(priority 2006, published 2010)",
  "system": "TNBS induced IBD rats",
  "experiment": "Experiment III: TNBS-ethanol induced IBD in rats",
  "format": "in vivo, Wistar rats",
  "settings": "for Colonic lesion score: CON 0, M 6.00 ± 3.25; for Colon weight of length: CON 0.106 ± 0.011, M 0.376 ± 0.133; for MDA / MPO / SOD: colon homogenate; for MDA: CON 0.0360 ± 0.00632, M 0.0274 ± 0.0055; for MPO: CON 21.993 ± 2.061, M 134.038 ± 1.979; for SOD: CON 46.400 ± 8.202, M 38.005 ± 4.121",
  "source_text": "Wister rats were randomly divided into seven groups. There are four […] in each group, including normal control (CON) group, Model (M) group, positive control (SASP) group, diammonium glycyrrhizinate gavage administration (DI) group, diammonium glycyrrhizinate low dose (DGD) group, diammonium glycyrrhizinate medium dose (DGZ) group, and diammonium glycyrrhizinate high dose (DGG) group. No water and diets restriction were applied to mice during the period of the experiment.\nRats were anesthetized by ether. TNBS dissolved in 30% ethanol were injected into rat colon 8 cm in depth through anus with an i.v. tubing. The concentration of TNBS was 100 mg/Kg at the volumes of 0.20 ml/100 g. The rats were held up side down for 1 minute after the injection before released back to the cages.\nThere are seven groups total in this test. Rats in all groups were treated identically to create IBD models and the experimental conditions are described in the following.\nNormal control (Con) group: Both TNBS-ethanol solution and treated drugs were replaced by normal saline. The dose of drug for treatment was 0.20 ml/100 g. Model (M) group: After creating the TNBS-ethanol induced IBD model in rats, normal saline instead of drug was used as a blank control for the comparison of drug treatment. The drug dose of IBD treatment was 0.20 ml/100 g. SASP group: SASP (22.5 mg/100 g) was used as a positive control. SASP was applied to rats through anus after ether anesthesia. Diammonium glycyrrhetate gavage administration (DI) group: Diammonium glycyrrhetate (10 mg/kg) was provided to rats by gavage after ether anesthesia. Diammonium glycyrrhetate, anal administration, low dose (DGD) group: Diammonium glycyrrhetate (2 mg/kg) was provided to rats through anus after ether anesthesia. Diammonium glycyrrhetate, anal administration, medium dose (DGZ) group: Diammonium glycyrrhetate (10 mg/kg) was provided to rats through anus after ether anesthesia. Diammonium glycyrrhetate, anal administration, high dose (DGG) group: Diammonium glycyrrhetate (50 mg/kg) was provided to rats through anus after ether anesthesia.\nDuring the experimental period, daily activities and body weights of rats were investigated and recorded. Ten days after IBD model establishment, fasting was introduced to rats but water was provided continuously. Before sacrificing the rats, feces samples were taken for OB test; eyeballs were removed for blood sampling and serum samples were obtained after centrifugation. Radioimmunoassay kits were used to detect IL-1β, IL-6 and TNF-α in serum. The rats were cervical executed; organs of spleen and thymus were removed and weighted for the index calculation. The whole length of colon was weighted; weight per unit length of colon was calculated. The degrees of colon injury were evaluated according to the reference 23 with some modifications. We included the changes of intestinal adhesion, colon ulcer, and inflammatory as the score marks. The standard of score is same as we mentioned previously. The 3 mm colon samples were taken from the end part of colon; fixed by either neutral formaldehyde solution or 2.5% of glutaraldehyde solution for anatomy dissecting. The samples fixed by neutral formaldehyde solution were sent to perform H-E staining and immunohistochemical staining (IL-10, COX-II, and ICAM-1). The samples fixed by 2.5% of glutaraldehyde solution were photo-imaged by both scanning electron microscope and transmission electron microscope. The rest of samples were handled at ice-cold temperature to make 10% homogenization solution and stored at −20° C. for future use. MOP, SOD, MDA and amounts of tissue proteins were determined by Maehly, Pyrogallol, TBA, and Lowry methods.",
  "key": {"[1]": {"settings": "DG medium dose group, through anus 10 mg/kg"}, "[2]": {"settings": "DGD group: through anus, low dose 2 mg/kg"}, "[3]": {"settings": "DGG group: through anus, high dose 50 mg/kg"}, "[4]": {"settings": "DGZ group: through anus, medium dose 10 mg/kg"}, "[5]": {"settings": "SASP group: 22.5 mg/100 g through anus"}, "[6]": {"settings": "positive control (SASP) group: 22.5 mg/100 g through anus"}},
  "data": [
    {"smiles": "CC1(C(=O)[O-])CCC2(C)CCC3(C)C(=CC(=O)C4C5(C)CCC([O-])C(C)(C)C5CCC43C)C2C1.[Na+].[Na+]", "note": "(stereo not shown) [Disodium glycyrrhetate, disodium glycyrrhetate]", "values": [
      {"measurement": "HE staining of colon tissue (FIG. 3)", "setting": "DG gavage administration group, 10 mg/kg", "value": "less severe of symptoms with no ulcer formation"},
      {"measurement": "HE staining of colon tissue (FIG. 3)", "setting": "DG high dose group, through anus 50 mg/kg", "value": "relieved symptoms and no ulcer formation is observed"},
      {"measurement": "HE staining of colon tissue (FIG. 3)", "setting": "DG low dose group, through anus 2 mg/kg", "value": "relatively severe symptoms but without ulcer formation"},
      {"measurement": "HE staining of colon tissue (FIG. 3)", "setting": "[1]", "value": "no ulcer formation is seen"},
      {"measurement": "colon mucosa by scanning electron microscope (FIG. 4)", "setting": "[1]", "value": "relieved symptoms with less swelling"},
      {"measurement": "Colonic lesion score", "setting": "DGD group: through anus, low dose 2 mg/kg (table head: mg/100 g)", "value": "3.00 ± 1.69^ΔΔ"},
      {"measurement": "Colon weight of length", "setting": "[2]", "value": "0.385 ± 0.218", "unit": "g/cm"},
      {"measurement": "Colonic lesion score", "setting": "DGG group: through anus, high dose 50 mg/kg (table head: mg/100 g)", "value": "1.50 ± 0.89^ΔΔ"},
      {"measurement": "Colon weight of length", "setting": "[3]", "value": "0.174 ± 0.059", "unit": "g/cm"},
      {"measurement": "Colonic lesion score", "setting": "DGZ group: through anus, medium dose 10 mg/kg (table head: mg/100 g)", "value": "2.50 ± 1.39^ΔΔ"},
      {"measurement": "Colon weight of length", "setting": "[4]", "value": "0.177 ± 0.065", "unit": "g/cm"},
      {"measurement": "Colonic lesion score", "setting": "DI group: gavage, 10 mg/kg (table head: mg/100 g)", "value": "2.00 ± 1.20^ΔΔ"},
      {"measurement": "Colon weight of length", "setting": "DI group: gavage, 10 mg/kg", "value": "0.240 ± 0.085", "unit": "g/cm"},
      {"measurement": "MDA", "setting": "[2]", "value": "0.0431 ± 0.0243", "unit": "µmol/mg"},
      {"measurement": "MPO", "setting": "[2]", "value": "141.993 ± 2.494", "unit": "U/g"},
      {"measurement": "SOD", "setting": "[2]", "value": "28.847 ± 16.942", "unit": "U/ml"},
      {"measurement": "MDA", "setting": "[3]", "value": "0.0338 ± 0.0115", "unit": "µmol/mg"},
      {"measurement": "MPO", "setting": "[3]", "value": "111.753 ± 24.864", "unit": "U/g"},
      {"measurement": "SOD", "setting": "[3]", "value": "59.984 ± 3.205^Δ U/ml"},
      {"measurement": "MDA", "setting": "[4]", "value": "0.0365 ± 0.0151", "unit": "µmol/mg"},
      {"measurement": "MPO", "setting": "[4]", "value": "83.868 ± 16.465^Δ U/g"},
      {"measurement": "SOD", "setting": "[4]", "value": "46.095 ± 8.065", "unit": "U/ml"},
      {"measurement": "MDA", "setting": "DI group: gavage, 10 mg/kg", "value": "0.0907 ± 0.0302", "unit": "µmol/mg"},
      {"measurement": "MPO", "setting": "DI group: gavage, 10 mg/kg", "value": "100.576 ± 10.137^ΔΔ U/g"},
      {"measurement": "SOD", "setting": "DI group: gavage, 10 mg/kg", "value": "18.774 ± 8.700", "unit": "U/ml"}
    ]},
    {"smiles": "O=C(O)c1cc(/N=N/c2ccc(S(=O)(=O)Nc3ccccn3)cc2)ccc1O", "note": "[SASP, Sulfasalazine, reference compound]", "values": [
      {"measurement": "Colonic lesion score", "setting": "[5]", "value": "3.00 ± 1.69^ΔΔ"},
      {"measurement": "Colon weight of length", "setting": "[5]", "value": "0.354 ± 0.087", "unit": "g/cm"},
      {"measurement": "Thymus index", "setting": "SASP group: 22.5 mg/100 g through anus, CON 0.9302 ± 0.0984, M 0.0319 ± 0.1504", "value": "0.2375 ± 0.0792", "unit": "mg/g"},
      {"measurement": "Spleen index", "setting": "SASP group: 22.5 mg/100 g through anus, CON 2.309 ± 0.135, M 3.893 ± 0.210", "value": "3.326 ± 0.552", "unit": "mg/g"},
      {"measurement": "MDA", "setting": "[5]", "value": "0.0594 ± 0.0287", "unit": "µmol/mg"},
      {"measurement": "MPO", "setting": "[5]", "value": "44.916 ± 3.525^ΔΔ U/g"},
      {"measurement": "SOD", "setting": "[5]", "value": "33.884 ± 2.656", "unit": "U/ml"},
      {"measurement": "HE staining of colon tissue (FIG. 3)", "setting": "[6]", "value": "symptoms are reduced with no ulcers formation"},
      {"measurement": "colon mucosa by scanning electron microscope (FIG. 4)", "setting": "[6]", "value": "symptoms were relieved but with swelling in mucosa layer"}
    ]}
  ]
}
